The record followed here is BindingDB's records for PubMed 11602678 (Otsuka Maryland Research Institute, 2001).

In assay [1] the target is T1, Alpha-2C adrenergic receptor (Rattus norvegicus, UniProt P22086).
T1 sequence (P22086 whole entry): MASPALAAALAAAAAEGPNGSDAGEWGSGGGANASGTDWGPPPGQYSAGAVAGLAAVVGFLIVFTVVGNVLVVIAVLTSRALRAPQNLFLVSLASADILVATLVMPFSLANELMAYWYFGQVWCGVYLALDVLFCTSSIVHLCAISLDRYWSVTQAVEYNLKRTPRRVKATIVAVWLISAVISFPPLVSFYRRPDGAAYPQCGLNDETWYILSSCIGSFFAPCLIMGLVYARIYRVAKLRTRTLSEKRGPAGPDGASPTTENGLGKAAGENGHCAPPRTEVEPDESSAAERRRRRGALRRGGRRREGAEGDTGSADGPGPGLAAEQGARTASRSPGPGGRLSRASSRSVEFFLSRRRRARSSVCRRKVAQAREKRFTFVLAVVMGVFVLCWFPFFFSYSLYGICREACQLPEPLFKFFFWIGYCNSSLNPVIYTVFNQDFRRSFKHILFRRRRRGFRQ

In assay [2] the target is T2, Alpha-2A adrenergic receptor [16-465] (Rattus norvegicus, UniProt P22909).
T2 construct: 16-465
T2 sequence (P22909 whole entry): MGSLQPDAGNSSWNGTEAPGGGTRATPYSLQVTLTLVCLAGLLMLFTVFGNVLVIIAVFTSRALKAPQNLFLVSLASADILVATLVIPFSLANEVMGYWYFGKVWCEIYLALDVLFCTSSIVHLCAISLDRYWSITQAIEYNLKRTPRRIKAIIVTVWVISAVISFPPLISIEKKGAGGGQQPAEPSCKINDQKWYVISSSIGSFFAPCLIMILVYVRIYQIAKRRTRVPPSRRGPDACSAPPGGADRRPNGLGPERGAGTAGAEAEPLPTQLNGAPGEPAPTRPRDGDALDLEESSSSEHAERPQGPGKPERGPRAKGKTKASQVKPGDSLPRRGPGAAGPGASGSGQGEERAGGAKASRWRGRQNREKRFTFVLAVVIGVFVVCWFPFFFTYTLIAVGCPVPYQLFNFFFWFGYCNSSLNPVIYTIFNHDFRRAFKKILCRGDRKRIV

For the molecule `CCC(=O)Nc1c(C)cc(C(=O)N2CCC(N(C)CCc3ccccc3)CC2)cc1C` [NSC_219019], the Ki in assay [1] turned out to be 0.0137 µM; in assay [2], 3.84 µM.

For orientation: Ki means the dissociation constant of the complex between target and ligand, obtained from inhibition or displacement.
